Consider one molecule from patent publication US20250281474A1, “PHARMACEUTICAL COMPOSITION FOR TREATING COGNITIVE DECLINE OR FOR TREATING OVERWEIGHTNESS OR OBESITY” (University of the Ryukyus, priority 2021, published 2025).

The test system of one test is CP-AMPAR. Put plainly: Ca2+ imaging of hippocampal brain slices, AMPA+CTZ application, ob/ob mice. The class given is cell-based, mouse.
Another test concerns AMPAR (CP-AMPAR). Put plainly: Ca2+ imaging of hippocampal brain slices, AMPA+CTZ application (CP-AMPA reaction), HFD-fed mice. The class given is cell-based. Conditions: slices of HFD-fed mice given PER 5 mg/kg/day orally, 100 μM AMPA + 100 μM CTZ, N=5. As to the method: First, the intracellular calcium concentration ([Ca^2+]i) was directly measured in an acute brain slice of the hippocampus having a perihippocampal region using a mouse obesity model associated with HFD feeding (composition of diet (7) shown in Table 1) for 12 weeks after weaning to track calcium signaling (FIG. 1A: supplementary data moving image 1) in the hippocampus. HFD-fed mice received […] containing 100 μM CTZ (cyclothiazide; […]) applied to EC (entorhinal cortex), CA1 (cornu ammonis 1), CA2, CA3, and DG (dentate gyrus). The F525 normalized before and after application was compared.

In test [1] the test system is neurospheres established from NL-G-F(−/−) mice. Put plainly: Neurosphere culture from NL-G-F(-/-) mouse hippocampus: Aβ42/Aβ40 EIA and Aβ staining. The class given is cell-based. From the text: Biomarkers of Alzheimer's dementia include the Aβ42/Aβ40 ratio of cerebrospinal fluid (CSF) and plasma levels, phosphorylated tau (P-tau) in threonines 181 and 217, and neurofilament lite (NfL) (Curr Opin Neurol 2021 1 266-274). The Aβ42/Aβ40 ratio is considered to be able to predict Aβ accumulation in PET (Doecke J D et al., Neurology 2020). Hippocampus on 17 to 19 days of NL-G-F(−/−) mouse embryonic life was taken out and cultured by a Neurosphere method by Brewer G J et al. (Nat Protoc 2007 2, 1490-1498), and a supernatant was measured by an EIA method using this culture system. The change in the Aβ42/Aβ40 ratio by the perampanel (50 μM/methyl cellulose 4 μL) was analyzed. In 4 μL of a 0.5 w/v % aqueous solution of methyl cellulose 400, 5×10^4 spheres smaller than 50 μm in diameter were cultured in 50 ml Falcon Flask coated with poly-D-lysine/laminin, and Aβ42 and Aβ40 of the supernatant were measured by EIA method on the second day (FIG. 29A) and the fourth day (FIG. 29B) of culture. The solvent was administered 12 hours after seeding.

Test [2] in a line: Appearance and body weight of ob/ob mice. The class given is in vivo, mouse. The settings on record: ob/ob mice fed perampanel-containing diet 5 mg/kg body weight from 8 to 12 weeks of age. As to the method:
ob/ob mice and their littermates with wild-type traits were obtained as the offspring of ob+/− mice. These mice were fed freely and some of the ob/ob mice were fed perampanel-containing diet at 5 mg/kg body weight from 8 to 12 weeks of age. The appearance and body weight of these mice were compared at 12 weeks of age.

For another test, the system named is NL-GF mice. Put plainly: Novel object recognition test, AD model mice (NL-GF). The format is in vivo, mouse. The settings on record: NL-GF mice n=5; CD diet with perampanel 5 mg/kg body weight/day from 8 to 13 weeks of age. As to the method: Mice of CD, HFD, and HFD with PER treatment were handled daily for 5 minutes for 5 days prior to the start of the novel object recognition test. PER means the perampanel, which is an AMPA receptor antagonist. The mice were habituated to a 35 cm square, 25 cm high box for 10 minutes on the first day, and were given 2 identical objects (familiar objects) for 10 minutes on the second day. On the third day, one of the familiar objects was replaced with a novel object of different shape and color (FIG. 2F). […] The search time for each object was measured by offline analysis (47).
NL-GF mice begin to accumulate in the brain of Aβ from 8 weeks of age (Nat. Neurosci. 2014 17,661-4). In this example, the AD model mouse (n=5) was fed a CD diet containing a perampanel at a dose of 5 mg/kg body weight/day from 8 to 13 weeks of age, and the mouse was subjected to a novel object recognition test. In the negative control (n=5), a normal CD diet without perampanel was taken.

Take `N#Cc1ccccc1-c1cc(-c2ccccn2)cn(-c2ccccc2)c1=O` [PER, 3-(2-cyanophenyl)-5-(2-pyridyl)-1-phenyl-1,2-dihydropyridine-2-one]: the “inhibitory effect on CP-AMPAR in EC, CA1, CA2, CA3, DG” value in the test with CP-AMPAR (ob/ob mice slices, 100 μM, p<0.05 (FIG. 10-1A)) is listed as “significant inhibitory effect”. For the same molecule, the “Ca2+ permeability via CP-AMPAR in all hippocampal subregions” value in the test on CP-AMPAR (ob/ob mice, PER administration, p<0.05) is recorded as “significant inactivation”. Also, the “CP-AMPA reaction CA1 (maximum value of NF525)” value in the test with AMPAR (CP-AMPAR) (CA1) is listed as 1.00 ± 0.01 (N = 5). In the test with AMPAR (CP-AMPAR) (CA2), the “CP-AMPA reaction CA2 (maximum value of NF525)” value is listed as 1.00 ± 0.02 (N = 5). Besides, the “CP-AMPA reaction CA3 (maximum value of NF525)” value in the test with AMPAR (CP-AMPAR) (CA3) is 1.00 ± 0.01 (N = 5). Also, the “CP-AMPA reaction DG (maximum value of NF525)” value with AMPAR (CP-AMPAR) (DG) is on record as 1.02 ± 0.01 (N = 5). Also, the “CP-AMPA reaction EC (maximum value of NF525)” value in the test with AMPAR (CP-AMPAR) (EC) was 1.05 ± 0.05 (N = 5). In addition, the “Aβ staining of the culture” value in test [1] (fourth day of culture, formic acid treatment) is given as “decrease in Aβ”. Besides, the “Aβ42/Aβ40 ratio of the culture supernatant (EIA)” value in test [1] (perampanel 50 μM/methyl cellulose 4 μL, second and fourth day of culture) is on record as “significantly increased”. For the same molecule, the “overweight / appearance at 12 weeks of age” value in test [2] is “overweight was prevented”. For the same molecule, the “novel object recognition test” value in the test on NL-GF mice is listed as “significantly distinguish”.
